Test results published in US20170320870A1 (Medical Research Council Technology, priority 2009, published 2017).
Counter-ions that a name gives are not always drawn.

Target: T1, LRRK2 wild type (recombinant human, catalytic domain amino acids 970-2527, GST-tagged) (Homo sapiens, UniProt Q5S007)
T1 construct: The wild type used was recombinant human, catalytic domain (amino acids 970-2527) GST-tagged, expressed in insect cells; GST; purchased Invitrogen Corporation PV4873; host or cells: insect cells
Experiment: LRRK2 wild type protein kinase assay ([γ-33P] ATP, peptide substrate […]), IC50
Assay type: biochemical
Details: LRRK2 (variant not given); read-out: Potency score, LRRK2 IC50
Description: All LRRK2 protein kinases were of human origin and were sourced from Invitrogen Corporation (Carlsbad, Calif. 92008 USA) unless otherwise indicated. The active mutant used was recombinant human, catalytic domain (amino acids 970-2527) containing a G2019S mutation, GST-tagged, expressed in insect cells (Invitrogen Cat#PV4881). The wild type used was recombinant human, catalytic domain (amino acids 970-2527) GST-tagged, expressed in insect cells (Invitrogen Cat#PV4873). The kinase dead mutant used was recombinant human, catalytic domain (amino acids 970-2527) containing a D1994A mutation, GST-tagged, expressed in insect cells (Invitrogen Cat#PM4041AE). No special measures were taken to activate any of the kinases.
All assays were carried out at room temperature (˜21° C.) and were linear with respect to time and enzyme concentration under the conditions used. Assays were performed for 180 min in a 96 well format. LRRK2 was present at a concentration of approximately 5 nM. The enzyme was diluted and assayed in 50 mM Tris-HCl pH7.5, 0.1 mM EGTA, 1 mM DTT and 10 mM MgCl2. The concentration of magnesium chloride in the assay was 10 mM. The [γ-33P] […] The peptide substrate in the assay was […] at 100 μM.
The assays were initiated with Mg/ATP and stopped by the addition of 25 μl/well 50% orthophosphoric acid. Reactions were harvested onto Whatman P81 Unifilter Plates (Fisher Scientific. Loughborough, LE115RG, UK. Cat# FDU-105-020U) using a Tomtec harvester. (Tomtec Hamden, Conn. 06514. USA) Plates were counted using a Perkin Elmer Top Count NX7. (Perkin Elmer, Shelton Conn. 06484-4794 USA)
IC50 values of inhibitors were determined after carrying out assays at 10 different concentrations of each compound in duplicate.

T1 sequence (Q5S007 970-2527): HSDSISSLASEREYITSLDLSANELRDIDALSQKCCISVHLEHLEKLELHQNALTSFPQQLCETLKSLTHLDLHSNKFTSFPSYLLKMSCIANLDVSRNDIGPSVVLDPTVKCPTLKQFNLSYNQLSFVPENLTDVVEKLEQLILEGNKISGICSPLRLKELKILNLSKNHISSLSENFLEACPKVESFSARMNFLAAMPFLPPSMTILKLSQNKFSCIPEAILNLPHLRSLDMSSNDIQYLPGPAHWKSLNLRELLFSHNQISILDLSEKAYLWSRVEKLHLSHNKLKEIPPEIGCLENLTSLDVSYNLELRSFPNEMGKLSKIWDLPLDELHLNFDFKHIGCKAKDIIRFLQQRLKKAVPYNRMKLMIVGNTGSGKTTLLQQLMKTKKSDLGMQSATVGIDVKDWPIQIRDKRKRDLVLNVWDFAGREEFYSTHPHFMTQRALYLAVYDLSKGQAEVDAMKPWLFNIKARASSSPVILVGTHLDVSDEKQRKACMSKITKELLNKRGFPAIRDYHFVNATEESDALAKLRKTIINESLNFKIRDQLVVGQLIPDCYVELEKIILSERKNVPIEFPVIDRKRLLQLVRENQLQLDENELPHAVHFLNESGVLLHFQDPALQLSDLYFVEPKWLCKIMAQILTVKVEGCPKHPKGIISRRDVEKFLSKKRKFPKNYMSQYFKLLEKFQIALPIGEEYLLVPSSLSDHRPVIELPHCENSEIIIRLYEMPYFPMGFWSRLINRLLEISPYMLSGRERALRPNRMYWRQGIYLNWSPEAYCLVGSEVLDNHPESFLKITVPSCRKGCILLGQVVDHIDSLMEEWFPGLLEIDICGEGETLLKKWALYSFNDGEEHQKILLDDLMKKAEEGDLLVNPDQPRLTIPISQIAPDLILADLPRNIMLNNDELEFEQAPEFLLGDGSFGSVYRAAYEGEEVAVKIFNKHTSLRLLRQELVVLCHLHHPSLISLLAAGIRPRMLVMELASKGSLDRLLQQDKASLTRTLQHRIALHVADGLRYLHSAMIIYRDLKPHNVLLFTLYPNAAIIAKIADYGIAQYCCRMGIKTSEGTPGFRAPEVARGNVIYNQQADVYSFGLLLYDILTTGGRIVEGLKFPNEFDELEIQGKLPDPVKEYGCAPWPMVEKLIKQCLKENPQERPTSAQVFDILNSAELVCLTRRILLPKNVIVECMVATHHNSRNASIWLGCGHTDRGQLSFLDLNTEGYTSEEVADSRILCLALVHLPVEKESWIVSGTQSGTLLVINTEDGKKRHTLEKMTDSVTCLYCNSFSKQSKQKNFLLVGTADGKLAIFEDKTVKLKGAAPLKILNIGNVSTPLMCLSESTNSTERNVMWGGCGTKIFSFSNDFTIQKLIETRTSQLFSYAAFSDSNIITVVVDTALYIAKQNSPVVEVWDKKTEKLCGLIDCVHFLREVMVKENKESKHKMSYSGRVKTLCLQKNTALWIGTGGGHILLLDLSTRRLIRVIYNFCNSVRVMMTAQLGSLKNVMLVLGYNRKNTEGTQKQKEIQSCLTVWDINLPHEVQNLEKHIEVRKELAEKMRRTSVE

IC50 [µM]	SMILES
1 to 10	Cc1n[nH]cc1Nc1nccc2[nH]nc(C)c12 [Example 82, (3-Methyl-1H-pyrazolo[4,3-c]pyridin-4-yl)-(3-methyl-1H-pyrazol-4-yl)-amine]
0.1 to 1	COc1ccccc1Nc1nccc2[nH]nc(C)c12 [Example 84, (2-Methoxy-phenyl)-(3-methyl-1H-pyrazolo[4,3-c]pyridin-4-yl)-amine]
0.1 to 1	Cc1n[nH]c2ccnc(Nc3cnn(C)c3)c12 [Example 88, (3-Methyl-1H-pyrazolo[4,3-c]pyridin-4-yl)-(1-methyl-1H-pyrazol-4-yl)-amine]
0.1 to 1	Cc1n[nH]c2ccnc(Nc3ccc4cnn(C)c4c3)c12 [Example 90, (1-Methyl-1H-indazol-6-yl)-(3-methyl-1H-pyrazolo[4,3-c]pyridin-4-yl)-amine]
1 to 10	Cc1n[nH]c2ccnc(N(C)CC(C)C)c12 [Example 91, Isobutyl-methyl-(3-methyl-1H-pyrazolo[4,3-cc]pyridin-4-yl)-amine]
1 to 10	Cc1n[nH]c2ccnc(Nc3cccc(N(C)C)c3)c12 [Example 92, N,N-Dimethyl-N′-(3-methyl-1H-pyrazolo[4,3-c]pyridin-4-yl)-benzene-1,3-diamine]
1 to 10	Cc1n[nH]c2ccnc(Nc3ccccn3)c12 [Example 94, (3-Methyl-1H-pyrazolo[4,3-c]pyridin-4-yl)-pyridin-2-yl-amine]
1 to 10	Cc1n[nH]c2ccnc(N(C)Cc3ccccc3)c12 [Example 95, Benzyl-methyl-(3-methyl-1H-pyrazolo[4,3-c]pyridin-4-yl)-amine]
1 to 10	COc1ccc(CNc2nccc3[nH]nc(C)c23)c(OC)c1 [Example 97, (2,4-Dimethoxy-benzyl)-(3-methyl-1H-pyrazolo[4,3-c]pyridin-4-yl)-amine]
1 to 10	Cc1n[nH]c2ccnc(C(=O)NC3CCCCC3)c12 [Example 100, 3-Methyl-1H-pyrazolo[4,3-c]pyridine-4-carboxylic acid cyclohexylamide]
0.1 to 1	CC(=O)N1CCC(Nc2nccc3[nH]nc(C)c23)CC1 [Example 101, 1-[4-(3-Methyl-1H-pyrazolo[4,3-c]pyridin-4-ylamino)-piperidin-1-yl]-ethanone]
< 0.1	Cc1n[nH]c2ccnc(OC3CCCCC3)c12 [Example 114, 4-Cyclohexyloxy-3-methyl-1H-pyrazolo[4,3-c]pyridine]
< 0.1	Cc1n[nH]c2ccnc(OC3CCCC3)c12 [Example 115, 4-Cyclopentyloxy-3-methyl-1H-pyrazolo[4,3-c] pyridine]
1 to 10	Cc1n[nH]c2ccnc(OC3CCN(C)CC3)c12 [Example 116, 3-Methyl-4-(1-methyl-piperidin-4-yloxy)-1H-pyrazolo[4,3-c] pyridine]
0.1 to 1	Cc1n[nH]c2ccnc(Oc3cccc(F)c3)c12 [Example 117, 4-(3-Fluoro-phenoxy)-3-methyl-1H-pyrazolo [4,3-c]pyridine]
0.1 to 1	Cc1n[nH]c2ccnc(OC3CCOCC3)c12 [Example 118, 3-Methyl-4-(tetrahydro-pyran-4-yloxy)-1H-pyrazolo[4,3-c]pyridine]
1 to 10	Cc1n[nH]c2ccnc(OC3CCN(C(C)C)CC3)c12 [Example 119, 4-(1-Isopropyl-piperidin-4-yloxy)-3-methyl-1H-pyrazolo[4,3-c]pyridine]

Continued, molecule first:

SMILES	IC50 [µM]
Cc1n[nH]c2ccnc(Nc3cccc(N4CCOCC4)c3)c12 [Example 80, (3-Methyl-1H-pyrazolo[4,3-c]pyridin-4-yl)-(3-morpholin-4-yl-phenyl)-aniline]	1 to 10
Cc1n[nH]c2ccnc(Nc3ccc4nc[nH]c4c3)c12 [Example 81, (3H-Benzimidazol-5-yl)-(3-methyl-1H-pyrazolo[4,3-c]pyridin-4-yl)-amine]	0.1 to 1
Cc1n[nH]c2ccnc(Nc3ccc(C(N)=O)cc3)c12 [Example 83, 4-(3-Methyl-1H-pyrazolo[4,3-c]pyridin-4-ylamino)-benzamide]	0.1 to 1
Cc1n[nH]c2ccnc(Nc3ccc(N4CCOCC4)cc3)c12 [Example 85, (3-Methyl-1H-pyrazolo[4,3-c]pyridin-4-yl)-(4-morpholin-4-yl-phenyl)-amine]	0.1 to 1
Cc1n[nH]c2ccnc(Nc3ccc(N4CCN(C)CC4)cc3)c12 [Example 86, [4-(4-Methyl-piperazin-1-yl)-phenyl]-(3-methyl-1H-pyrazolo[4,3-c]pyridin-4-yl)-amine]	1 to 10
Cc1n[nH]c2ccnc(Nc3ccc(-c4cnco4)cc3)c12 [Example 87, (3-Methyl-1H-pyrazolo[4,3-c]pyridin-4-yl)-(4-oxazol-5-yl-phenyl)-amine]	0.1 to 1
Cc1n[nH]c2ccnc(Nc3ccc(N4CCCC4=O)cc3)c12 [Example 89, 1-[4-(3-Methyl-1H-pyrazolo[4,3-c]pyridin-4-ylamino)-phenyl]-pyrrolidin-2-one]	0.1 to 1
Cc1n[nH]c2ccnc(Nc3ccc4cn[nH]c4c3)c12 [Example 93, (1H-Indazol-6-yl)-(3-methyl-1H-pyrazolo[4,3-c]pyridin-4-yl)-amine]	0.1 to 1
Cc1n[nH]c2ccnc(Nc3ccc(-n4cncn4)cc3)c12 [Example 96, (3-Methyl-1H-pyrazolo[4,3-c]pyridin-4-yl)-(4-1,2,4-triazol-1-yl-phenyl)-amine hydrochloride salt]	0.1 to 1
Cc1n[nH]c2ccnc(NC3CCN(Cc4ccccc4)CC3)c12 [Example 98, (1-Benzyl-piperidin-4-yl)-(3-methyl-1H-pyrazolo[4,3-c]pyridin-4-yl)-amine]	1 to 10
Cc1n[nH]c2ccnc(Nc3ccc4c(cnn4C)c3)c12 [Example 99, (1-Methyl-1H-indazol-5-yl)-(3-methyl-1H-pyrazolo[4,3-c]pyridin-4-yl)-amine]	0.1 to 1
COCCC(=O)N1CCC(Nc2nccc3[nH]nc(C)c23)CC1 [Example 102, 3-Methoxy-1-[4-(3-methyl-1H-pyrazolo[4,3-c]pyridin-4-ylamino)-piperidin-1-yl]-propan-1-one]	1 to 10
Cc1n[nH]c2ccnc(NC3CCN(C(=O)CCN4CCOCC4)CC3)c12 [Example 103, 1-[4-(3-Methyl-1H-pyrazolo[4,3-c]pyridin-4-ylamino)-piperidin-1-yl]-3-morpholin-4-yl-propan-1-one]	1 to 10
Cc1n[nH]c2ccnc(NC3CCN(C(=O)C4CCC4)CC3)c12 [Example 104, Cyclobutyl-[4-(3-methyl-1H-pyrazolo[4,3-c]pyridin-4-ylamino)-piperidin-1-yl]-methanone]	1 to 10
COc1ccc(C(=O)N2CCC(Nc3nccc4[nH]nc(C)c34)CC2)cc1 [Example 105, (4-Methoxy-phenyl)-[4-(3-methyl-1H-pyrazolo[4,3-c]pyridin-4-ylamino)-piperidin-1-yl]-methanone]	1 to 10
Cc1n[nH]c2ccnc(Nc3ccc(C(=O)NC4CCCC4)cc3)c12 [Example 106, N-Cyclopentyl-4-(3-methyl-1H-pyrazolo[4,3-c]pyridin-4-ylamino)-benzamide]	1 to 10
Cc1n[nH]c2ccnc(Nc3ccc(C(=O)N(C)C4CCCCC4)cc3)c12 [Example 107, N-Cyclohexyl-N-methyl-4-(3-methyl-1H-pyrazolo [4,3-c]pyridin-4-ylamino)-benzamide]	1 to 10
COCCNC(=O)c1ccc(Nc2nccc3[nH]nc(C)c23)cc1 [Example 108, N-(2-Methoxy-ethyl)-4-(3-methyl-1H-pyrazolo [4,3-c]pyridin-4-ylamino)-benzamide]	1 to 10
Cc1n[nH]c2ccnc(Nc3ccc(C(=O)N(C)c4ccccc4)cc3)c12 [Example 109, N-Methyl-4-(3-methyl-1H-pyrazolo[4,3-c]pyridin-4-ylamino)-N-phenyl-benzamide]	1 to 10
Cc1n[nH]c2ccnc(Nc3ccc(C(=O)N4CCC(F)(F)CC4)cc3)c12 [Example 110, (4,4-Difluoro-piperidin-1-yl)-[4-(3-methyl-1H-pyrazolo[4,3-c]pyridin-4-ylamino)-phenyl]-methanone]	0.1 to 1
COc1ccccc1NC(=O)c1ccc(Nc2nccc3[nH]nc(C)c23)cc1 [Example 111, N-(2-Methoxy-phenyl)-4-(3-methyl-1H-pyrazolo[4,3-c]pyridin-4-ylamino)-benzamide]	1 to 10
Cc1n[nH]c2ccnc(Nc3ccc(C(=O)N4CCOCC4)cc3)c12 [Example 112, [4-(3-Methyl-1H-pyrazolo[4,3-c]pyridin-4-ylamino)-phenyl]-morpholin-4-yl-methanone]	0.1 to 1
Cc1n[nH]c2ccnc(Nc3ccc(C(=O)N4CCCC4)cc3)c12 [Example 113, [4-(3-Methyl-1H-pyrazolo[4,3-c]pyridin-4-ylamino)-phenyl]-pyrrolidin-1-yl-methanone]	0.1 to 1
Cc1n[nH]c2ccnc(Oc3ccc(-n4ccnc4)cc3)c12 [Example 120, 4-(4-Imidazol-1-yl-phenoxy)-3-methyl-1H-pyrazolo[4,3-c]pyridine]	0.1 to 1
